The text below walks through data of PMC6627331, “Identification of Small Molecule Inhibitors of Staphylococcus aureus RnpA” (Antibiotics, 2019).

Assay [1] deals with S. aureus RN4220 pML100::rnpA-KD. Nature of the assay: Cellular RnpA depletion hypersusceptibility growth curve. The assay is classed as cell-based, Staphylococcus aureus. The conditions noted are these: […] MIC JC2 or 0.5× MIC RNPA2000. The protocol: 100 μL of each culture was transferred to a 96 well flat bottom plate in duplicate and growth monitored by OD600 reading every 30 min over 8 h at 37 °C. Hypersusceptibility growth curves were averaged from two biological replicates in technical duplicate.

The target in assay [2] is T1, S. aureus RNase P (RnpA + rnpB) (Staphylococcus aureus, UniProt P0A0H5).
T1 construct: hexahistidine (His6) (N); made in house; host or cells: E. coli BL21 (DE3), plasmid pEXP5-nt
T1 sequence (P0A0H5 1-117): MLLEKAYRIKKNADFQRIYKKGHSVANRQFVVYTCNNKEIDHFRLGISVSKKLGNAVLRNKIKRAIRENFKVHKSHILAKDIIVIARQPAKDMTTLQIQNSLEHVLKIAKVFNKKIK
Nature of the assay: RnpA-dependent RNase P in vitro ptRNA^Tyr processing assay. The note with it: in vitro ptRNA^Tyr processing; read-out: Processing IC50. The format is biochemical. The protocol:
S. aureus RNase P activity assays were performed according to conditions described previously. Briefly, ptRNA^Tyr and rnpB RNA species were first denatured by heating to 95 °C for 5 min then slow cooled to room temperature. RNase P was reconstituted by mixing an equal molar ratio of rnpB and RnpA for 15 min at 37 °C. Precursor tRNA processing inhibition reactions were performed by mixing 1.25 pmol of reconstituted RNase P (RnpA + rnpB) with an equal volume of 2× low salt buffer (50 mM Tris-HCl pH 8.0, 5 mM MgCl2) in the presence of DMSO (negative control) or the indicated compound (≤500 µM) and incubated for 5 min at 37 °C. 5 pmol ptRNA^Tyr was added and the mixture was incubated at 37 °C 15 min. Reactions were stopped by adding 2× RNA loading dye and heating at 65 °C for 10 min. Each sample was electrophoresed in a 7 M urea/8% polyacrylamide gel then stained with ethidium bromide. The Biorad EZ Gel Doc imaging system was used to visualize the RNA and relative abundance of the mature tRNA^Tyr band (% processing) in the negative control or in samples containing the indicated compounds and analyzed using Biorad Image Lab densitometry software. The inhibitory activity of the indicated compounds were calculated as a % inhibition using the following equation: […].
To assess IC50, % RNase P processing inhibition was plotted against compound concentration and a linear best fit equation was generated to calculate the IC50.

Assay [3] concerns S. aureus UAMS-1. Nature of the assay: Galleria mellonella model of S. aureus infection. The assay is classed as in vivo. The note with it: 10^4 CFU UAMS-1, single dose 100 mg·kg^−1 1 h post-infection, 16 h; DMSO 60%. How it is done: An overnight culture of S. aureus strain UAMS-1 was used to inoculate (1:100 dilution) 25 mL of fresh MH medium and growth at 37 °C on a rotary shaker at 225 rpm to exponential phase (~1 × 10^8 CFU mL^−1). Cultures were pelleted by centrifugation, washed with phosphate buffered saline (PBS), and re-suspended at ~1 × 10^7 CFU·mL^−1 in fresh PBS. G. mellonella larvae weighing 150–250 mg were inoculated with 5 µL of S. aureus into the last left proleg using a 10 µL Hamilton syringe. About 1 h after inoculation, one group of worms was treated with 2 µL DMSO as infected negative control; one group was treated with 2 µL JC2 compound at 100 mg/kg dose; another group was treated with 2 µL vancomycin at 100 mg/kg dose as standard-of-care comparison. Treatments were administered in the same manner as infection, except that each injection was in the next left proleg moving towards the head of the worm. […] In addition to the mock or compound treatment of infected larvae, a group of non-infected worm injected with DMSO or corresponding compounds were used to monitor the impact of physical trauma as well as observe toxicity associated with compound treatment.

Assay [4] concerns S. aureus UAMS-1. Nature of the assay: Minimum inhibitory concentration (MIC) testing. The assay is classed as cell-based, Staphylococcus aureus. How it is done: Minimum inhibitory concentration (MIC) testing was performed using to Clinical & Laboratory Standards Institute (CLSI) guidelines. Accordingly, individual wells of a 96-well microtiter plate were inoculated with 10^4 colony forming units (CFU) of S. aureus UAMS-1 containing two-fold increasing concentrations (0 to 256 μg·mL^−1) of the indicated antibiotic or putative RnpA inhibitor compound, and incubated at 37 °C for 16 h in MHB. The MIC was defined as the lowest concentration of compound in which there was no visible bacterial growth in the well.

Assay [5] has as its system norA mRNA in S. aureus UAMS-1 cells. In words: Cellular norA mRNA turnover (qRT-PCR after rifampin arrest). The assay is classed as cell-based, Staphylococcus aureus. The conditions noted are these: 0.5× MIC for 30 min; 5 min post-transcriptional arrest; mock 99%. How it is done: S. aureus mRNA half-life determinations were performed as previously described. […] Rifampin (Sigma-Aldrich) was added to the culture at a final concentration of 200 μg·mL^−1 to inhibit de novo transcript synthesis. Half of the culture was immediately removed and combined with an equal volume of ice cold acetone:ethanol (1:1 v/v). The remaining culture was returned to the shaking 37 °C incubator for an additional 5 min and then subsequently combined with an equal volume of ice cold acetone:ethanol (1:1 v/v) and stored at −80 °C until processing, as described below.
For total bacterial RNA isolation, cell suspensions were thawed on ice, centrifuged at 3000 rpm for 10 min at 4 °C, the resulting cell pellets were resuspended in ice-cold TE buffer (10 mM Tris-HCl, pH 8.0, 1 mM EDTA), and transferred into a FastPrep bead beater tube containing 0.1 mm silica spheres (MP Biomedicals; Santa Ana, CA, USA). Mixtures were homogenized at 5 m·s^−1 for 20 s, rested on ice for 5 min, and then homogenized again at 4.5 m·s^−1 in a FastPrep-24 instrument. Cellular debris were collected by centrifugation at 13,000 rpm for 15 min at 4 °C, whereas bacterial RNA was isolated from the supernatant using Qiagen RNeasy Mini Kits and miRNeasy Mini Kits were used to isolate total bacterial RNA, following the manufacturer’s instructions. RNA quantity and quality were measured using a NanoDrop 2000 spectrophotometer (ThermoFisher Scientific). For qRT-PCR, 1 μg of total bacterial RNA was treated with 3 units of DNase I (Ambion; Carlsbad, CA, USA) for 1 h at 37 °C to remove any DNA contaminants. RNA cleanup was performed using the Qiagen RNeasy Mini Kit. Subsequently, the BioRad iScript cDNA Synthesis Kit (Hercules, CA, USA) was used to convert 200 ng of RNA into cDNA, which was amplified using the BioRad iQ SYBR Green Supermix per the manufacturer’s instructions and fluorescence was read on the Biorad CFX 96 Connect machine. Transcript levels were compared to the internal control 16S rRNA (ΔΔCt method), and plotted as a fold change compared to control. The following primer pairs were used in this study for qRT-PCR: norA forward—[…] and norA reverse-[…] CTAAG; -15 ptRNA^Tyr forward-[…] and tRNA^Tyr reverse-TGGTG […]; 16S rRNA forward-[…] and 16S rRNA reverse-[…].
Background: Quantitative PCR measures a nucleic acid by following its amplification.

Converted amounts (≈) assume the structure as drawn. Where two headings read alike, the source gives them in different places.

For orientation: IC50 means the concentration that gives 50% inhibition. Broadly, the MIC is the least concentration at which growth counts as inhibited. For `CC1CCCCN1C(=O)Nc1cc(Cl)cc(Cl)c1` (stereo not shown) [JC2], the “growth of RnpA-depleted cells (RnpA-KD) versus vector cells” value in assay [1] is recorded as “displayed a growth defect”. Further, in assay [2], the IC50 came to 200 µM. The “mortality rate of S. aureus infected worms” value in assay [3] is 30%. In addition, the MIC was 1 µg/mL (≈ 3.48 µM) in assay [4] (S. aureus UAMS-1, 16 h in MHB, listed as 9049625); 1 µg/mL in assay [4] (Staphylococcus aureus, UAMS1, 16 h, Table S1, mupirocin synergy screening initial hits, read-out: MIC); 0.5 µg/mL (≈ 1.74 µM) in assay [4] (Staphylococcus aureus, UAMS1, SAR figures, S. aureus UAMS-1, read-out: MIC). For the same molecule, the “norA mRNA degradation” value in assay [5] came to 27%.
